Measured values published in ChEMBL document CHEMBL1156025, “GDC-0449-a potent inhibitor of the hedgehog pathway” (Bioorg Med Chem Lett, 2009).
Values after ≈ are worked out from the molar mass of the structure shown. Active and inactive are the calls of the source. The rule behind the calls is not given here.

Assays:
Cytochrome P450 2C9 = Cytochrome P450 2C9 (Homo sapiens, UniProt P11712); assay: Inhibition of CYP2C9; type: ADME
[1] = Plasma concentration in human Calu6 cells xenografted in nude mouse at 75 mg/kg, po bid measured after 4 hrs post fifth dose; type: ADME, organism-based, Calu-6; parameters: dose 75 mg/kg, route oral
Plasma = assay: (§1) Fraction unbound in human Calu6 cells xenografted in nude mouse plasma at 75 mg/kg, po bid measured after 4 hrs post fifth dose; type: ADME, organism-based, Calu-6; parameters: dose 75 mg/kg, route oral; settings: in vivo, 4 h
[2] = Clearance in rat liver microsomes; type: ADME, Microsome
[3] = Aqueous solubility at pH 6.5; type: physicochemical
[4] = Clearance in dog liver microsomes; type: ADME, Canis lupus familiaris, Microsome
[5] = Aqueous solubility at pH 1; type: physicochemical
Calu-6 = assay: Inhibition of hedgehog pathway in human Calu6 cells xenografted in nude mouse assessed as decrease in Gli transcription at 75 mg/kg, po bid measured after 4 hrs post fifth dose; type: functional, organism-based; parameters: dose 75 mg/kg
[6] = as §1; type: ADME, organism-based, Calu-6; parameters: dose 75 mg/kg, route oral; settings: nude, plasma

Chain of Cytochrome P450 2C9 (P11712 whole entry): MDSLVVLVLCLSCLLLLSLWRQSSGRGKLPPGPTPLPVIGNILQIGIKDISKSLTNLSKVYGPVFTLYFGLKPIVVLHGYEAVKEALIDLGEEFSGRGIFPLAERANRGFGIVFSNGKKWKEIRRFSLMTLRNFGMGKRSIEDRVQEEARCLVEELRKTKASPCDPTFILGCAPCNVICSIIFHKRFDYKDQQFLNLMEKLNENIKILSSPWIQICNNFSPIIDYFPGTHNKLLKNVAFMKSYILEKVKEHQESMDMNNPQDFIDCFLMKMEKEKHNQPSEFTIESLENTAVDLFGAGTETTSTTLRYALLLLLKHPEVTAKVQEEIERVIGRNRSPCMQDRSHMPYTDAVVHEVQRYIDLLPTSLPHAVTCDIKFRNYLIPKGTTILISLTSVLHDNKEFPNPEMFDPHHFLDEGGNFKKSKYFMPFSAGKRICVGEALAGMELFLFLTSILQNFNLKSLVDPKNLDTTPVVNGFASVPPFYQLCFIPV

Compound	IC50 (Cytochrome P450 2C9) [nM]	concentration at 4 h [1] [µM]	Fu (Plasma) [%]	CLint scaled [2] [mL/min/kg]	solubility [3] [µg/mL]	CLint scaled [4] [mL/min/kg]	solubility [5] [µg/mL]	Activity (Calu-6)	fraction unbound at 4 h [6]
Cc1nc(C(F)(F)F)ccc1C(=O)Nc1ccc(Cl)c(-c2nc3ccccc3n2C)c1	2500	–	–	–	–	–	–	–	–
CS(=O)(=O)c1ccc(C(=O)Nc2ccc(Cl)c(-c3ccccn3)c2)c(Cl)c1 [VISMODEGIB]	–	23	9	3.7	9.5 (≈ 22.5 µM)	0.4	> 3000	–	–
Cc1nc(C(F)(F)F)ccc1C(=O)Nc1ccc(Cl)c(-c2ccccn2)c1	–	0.86	–	4.5	1.8 (≈ 4.59 µM)	1.9	1000 (≈ 2550 µM)	inactive	–
Cc1nc(C(F)(F)F)ccc1C(=O)Nc1ccc(Cl)c(-c2cnc3ccccc3n2)c1	–	–	–	10.7	0.1 (≈ 0.226 µM)	7.4	0.1 (≈ 0.226 µM)	–	–
CS(=O)(=O)c1ccc(C(=O)Nc2ccc(Cl)c(-c3ccccn3)c2)cc1	–	14	–	1.2	0.5 (≈ 1.29 µM)	1.4	420 (≈ 1090 µM)	inactive	0.03
Cc1nc(C(F)(F)F)ccc1C(=O)Nc1ccc(Cl)c(-c2nc3ccccc3[nH]2)c1	–	–	–	3	0.3 (≈ 0.696 µM)	124	300 (≈ 696 µM)	–	–
Cc1nc(C(F)(F)F)ccc1C(=O)Nc1ccc(Cl)c(-n2cc3ccccc3n2)c1	–	–	–	99.3	–	–	–	–	–
